Tests used:
Type in all cases: cell-based
[1] = target: T1, 17β-hydroxysteroid dehydrogenase type 1 (17β-HSD type 1) (Homo sapiens, UniProt P14061); assay: Inhibition of 17β-HSD type 1 in MCF-7 cells stably expressing the isoenzyme (tritium labeled estrone conversion, HPLC); settings: MCF-7 cells expressing 17β-HSD type 1, 2 nM tritium labeled estrone; for inhibition at 1 µM / inhibition at 10 µM: MCF7; for inhibition at 1 µM / % Inhibition HSD1 1 μM: 1 μM test compound; for inhibition at 1 µM: read-out: % Inhibition HSD1 1 μM; for inhibition at 10 µM / % Inhibition HSD1 10 μM: 10 μM test compound; for inhibition at 10 µM: read-out: % Inhibition HSD1 10 μM
T1 construct: expressed in transfected cells; host or cells: MCF-7
T1 sequence (P14061 1-328): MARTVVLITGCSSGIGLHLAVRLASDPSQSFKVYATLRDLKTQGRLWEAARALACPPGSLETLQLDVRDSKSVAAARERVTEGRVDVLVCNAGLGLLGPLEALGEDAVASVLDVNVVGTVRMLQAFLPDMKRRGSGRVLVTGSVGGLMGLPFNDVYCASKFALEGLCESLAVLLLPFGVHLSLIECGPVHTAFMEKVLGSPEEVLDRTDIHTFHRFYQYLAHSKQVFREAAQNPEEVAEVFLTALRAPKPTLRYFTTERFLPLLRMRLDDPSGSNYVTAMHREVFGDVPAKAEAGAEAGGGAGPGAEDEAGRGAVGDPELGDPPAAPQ
Excerpt: (§1) Biological Testing Materials and Methods 1. Inhibition of the 17β-hydroxysteroid dehydrocienase type 1, type 2 and type 3 enzyme
(§2) The compounds were screened in respect of 17β-HSD enzyme activity in vitro on established MCF-7 cell lines, each stably expressing one of the respective 17β-HSD isoenzymes. The interconversion of substrate by each isoenzyme and the 17β-HSD inhibiting activity of chemical compounds in these cell lines were detected by HPLC system.
(§3) Varying amounts of the test compounds were incubated in the growth medium of the 17β-HSD expressing cells together tritium labeled substrate (2 nM estrone for 17β-HSD type 1; 2 nM estradiol for 17β-HSD type 2; and 2 nM androstenedione for 17β-HSD type 3). The medium samples were removed after exact incubation time and the reaction is stopped by trichloroacetic acid (TCA). The samples were analyzed by HPLC-coupled flow scintillation analysis.
(§4) For each enzyme type, the HSD-inhibiting activity of an individual test compound was calculated by comparing the conversion of a control sample without any test compound (referred to as “Negative Control”) to the (reduced) conversion of the test sample containing the particular compound to be tested (referred to as “Test Sample”).
(§5) Two concentrations of each compound were used. The number of the compound refers to the numbers indicated in the Experimental Section.

[2] = target: T2, 17β-hydroxysteroid dehydrogenase type 3 (17β-HSD type 3) (Homo sapiens, UniProt P37058); assay: Inhibition of 17β-HSD type 3 in MCF-7 cells stably expressing the isoenzyme (tritium labeled androstenedione conversion, HPLC); settings: MCF-7 cells expressing 17β-HSD type 3, 2 nM tritium labeled androstenedione; for inhibition at 1 µM / inhibition at 10 µM: MCF7; for inhibition at 1 µM / % Inhibition HSD3 1 μM: 1 μM test compound; for inhibition at 1 µM: read-out: % Inhibition HSD3 1 μM; for inhibition at 10 µM / % Inhibition HSD3 10 μM: 10 μM test compound; for inhibition at 10 µM: read-out: % Inhibition HSD3 10 μM
T2 construct: expressed in transfected cells; host or cells: MCF-7
T2 sequence (P37058 1-310): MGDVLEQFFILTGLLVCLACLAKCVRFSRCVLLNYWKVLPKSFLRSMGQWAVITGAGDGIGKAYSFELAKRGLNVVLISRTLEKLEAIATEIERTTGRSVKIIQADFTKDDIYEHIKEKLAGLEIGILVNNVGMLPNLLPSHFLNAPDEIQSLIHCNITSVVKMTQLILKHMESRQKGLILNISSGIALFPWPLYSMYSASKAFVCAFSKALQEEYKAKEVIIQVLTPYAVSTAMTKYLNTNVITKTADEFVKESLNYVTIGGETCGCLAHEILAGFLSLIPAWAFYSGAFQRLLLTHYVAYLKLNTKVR
Excerpt: as §1, §2, §3, §4, §5

[3] = target: T3, 17β-hydroxysteroid dehydrogenase type 2 (17β-HSD type 2) (Homo sapiens, UniProt P37059); assay: Inhibition of 17β-HSD type 2 in MCF-7 cells stably expressing the isoenzyme (tritium labeled estradiol conversion, HPLC); settings: MCF-7 cells expressing 17β-HSD type 2, 2 nM tritium labeled estradiol; for inhibition at 1 µM / inhibition at 10 µM: MCF7; for inhibition at 1 µM / % Inhibition HSD2 1 μM: 1 μM test compound; for inhibition at 1 µM: read-out: % Inhibition HSD2 1 μM; for inhibition at 10 µM / % Inhibition HSD2 10 μM: 10 μM test compound; for inhibition at 10 µM: read-out: % Inhibition HSD2 10 μM
T3 construct: expressed in transfected cells; host or cells: MCF-7
T3 sequence (P37059 1-387): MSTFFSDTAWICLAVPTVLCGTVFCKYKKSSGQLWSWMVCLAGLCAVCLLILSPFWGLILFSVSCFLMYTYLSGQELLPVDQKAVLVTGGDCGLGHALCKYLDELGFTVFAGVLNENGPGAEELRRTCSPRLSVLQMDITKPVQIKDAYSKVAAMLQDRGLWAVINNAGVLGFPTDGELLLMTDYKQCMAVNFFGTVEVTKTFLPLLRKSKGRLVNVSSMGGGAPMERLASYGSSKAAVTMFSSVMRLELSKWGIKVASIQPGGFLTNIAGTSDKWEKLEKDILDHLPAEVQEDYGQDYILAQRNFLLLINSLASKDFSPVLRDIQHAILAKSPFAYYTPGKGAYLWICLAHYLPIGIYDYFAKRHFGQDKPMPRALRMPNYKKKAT
Excerpt: as §1, §2, §3, §4, §5

Row | inhibition at 1 µM [1] [%] | inhibition at 10 µM [1] [%] | inhibition at 1 µM [2] [%] | inhibition at 10 µM [2] [%] | inhibition at 1 µM [3] [%] | inhibition at 10 µM [3] [%] | % Inhibition HSD1 1 μM [1] [%] | % Inhibition HSD1 10 μM [1] [%] | % Inhibition HSD3 1 μM [2] [%] | % Inhibition HSD3 10 μM [2] [%] | % Inhibition HSD2 1 μM [3] [%] | % Inhibition HSD2 10 μM [3] [%] | SMILES
1 | 23.5 | 37.4 | -6.1 | 7.1 | -1.8 | 32.3 | – | – | – | – | – | – | COC(=O)Cc1nc2sc3c(c2c(=O)n1Cc1ccccc1)CCCC3 [No. 26, 2-(acetic acid methyl ester)-3-benzyl-5,6,7,8-tetrahydro-3H-benzo[4,5]thieno[2,3-d]pyrimidin-4-one]
2 | 26.8 | 32.8 | 37.9 | 82.6 | 58.3 | 90.5 | – | – | – | – | – | – | O=C(OCCn1c(-c2cccs2)nc2sc3c(O)cccc3c2c1=O)c1cccs1 [No. 73, Thiophene-2-carboxylic acid 2-(8-hydroxy-4-oxo-2-thiohen-2-yl-4H-benzo[4,5]thieno[2,3-d]pyrimidin-3-yl)-ethyl ester]
3 | 27 | 53.2 | 53.7 | 97.9 | 29.1 | 42 | – | – | – | – | – | – | COCCn1c(-c2cccs2)nc2sc3c(O)c(Br)ccc3c2c1=O [No. 148, 7-Bromo-8-hydroxy-3-(2-methoxyethyl)-2-thiophen-2-yl-3H-benzo[4,5]thieno[2,3-d]pyrimidin-4-one]
4 | 1.7 | 33.5 | 75.7 | 100 | 5 | 20.1 | – | – | – | – | – | – | CCSC1=C(C=O)CCc2c1sc1nc(-c3ccc(OC)cc3)n(Cc3ccccc3)c(=O)c21 [No. 16, 3-Benzyl-8-ethylsulfanyl-2-(p-methoxyphenyl)-4-oxo-3,4,5,6-tetrahydro-benzo[4,5]thieno[2,3-d]pyrimidine-7-carbaldehyde]
5 | 0.3 | 23.6 | 14.2 | 17.6 | 11.4 | 33.4 | – | – | – | – | – | – | O=c1c2c3c(sc2nc(CO)n1-c1ccccc1)CCCC3 [No. 38, 2-Hydroxymethyl-3-phenyl-5,6,7,8-tetrahydro-3H-benzo[4,5]thieno[2,3-d]pyrimidin-4-one]
6 | – | – | – | – | – | – | 20.1 | 51.9 | 16.9 | 37.0 | 20.9 | 63.7 | CC(C)=Cc1nc2sc3c(O)cccc3c2c(=O)n1Cc1ccccc1 [No. 667]
7 | 39.3 | 62.2 | 19.7 | 44.1 | 19.7 | 20.7 | – | – | – | – | – | – | COc1cc(-c2nc3sc4c(O)cccc4c3c(=O)n2CC(C)C)c(Br)c(OC)c1OC [No. 117, 8-Hydroxy-3-isobutyl-2-(2-bromo-3,4,5-trimethoxyphenyl)-3H-benzo[4,5]thieno[2,3-d]pyrimidin-4-one]
8 | 25.5 | 54.9 | 16 | 39.4 | 22.5 | 33.9 | – | – | – | – | – | – | O=C1c2sc3nc(-c4ccccc4)n(Cc4ccccc4)c(=O)c3c2CCC1Br (centres unmarked) [No. 58, 3-Benzyl-7-bromo-2-phenyl-6,7-dihydro-3H,5H-benzo[4,5]thieno[2,3-d]pyrimidine-4,8-dione]
9 | 0.4 | 3.4 | -1.1 | 22 | 6.4 | 11.4 | – | – | – | – | – | – | COc1cc(-c2nc3sc4c(Cl)c(C=O)ccc4c3c(=O)n2Cc2ccccc2)c(Cl)c(OC)c1OC [No. 150, 3-Benzyl-8-chloro-2-(2-chloro-3,4,5-trimethoxyphenyl)-4-oxo-3,4-dihydro-benzo[4,5]thieno[2,3-d]pyrimidine-7-carbaldehyde]
10 | – | – | – | – | – | – | 29.8 | 28.4 | 13.9 | 19.8 | 27.6 | 26.4 | CCCCC(CC)c1nc2sc3c(O)cccc3c2c(=O)n1CCc1cccs1 (centres unmarked) [No. 644]
11 | – | – | – | – | – | – | 16.8 | 17.9 | 13.3 | 56.4 | 16.8 | 20.1 | CCCCn1c(CCC2CCCC2)nc2sc3c(O)cccc3c2c1=O [No. 634]
12 | 3.6 | 8.5 | 3.5 | 11 | 23.2 | 8.8 | – | – | – | – | – | – | COc1cc(-c2nc3sc4c(OC)cccc4c3c(=O)n2CC(C)C)cc(OC)c1OC [No. 136, 3-Isobutyl-8-methoxy-2-(3,4,5-trimethoxyphenyl)-3H-benzo[4,5]thieno[2,3-d]pyrimidin-4-one]
13 | -0.2 | 20.7 | 0.6 | 11.6 | 6 | 9.7 | – | – | – | – | – | – | COCCn1c(-c2cc(OC)c(OC)c(OC)c2)nc2sc3c(c2c1=O)CCCC3=O [No. 109, 3-(2-Methoxyethyl)-2-(3,4,5-trimethoxyphenyl)-6,7-dihydro-3H,5H-benzo[4,5]thieno[2,3-d]pyrimidine-4,8-dione]
14 | 25.8 | 32 | 18 | 28 | 18.9 | 26.4 | – | – | – | – | – | – | O=C1CCCc2c1sc1nc(-c3cccs3)n(Cc3ccccc3)c(=O)c21 [No. 62, 3-Benzyl-2-thiophen-2-yl-6,7-dihydro-3H,5H-benzo[4,5]thieno[2,3-d]pyrimidine-4,8-dione]
15 | 21.2 | 52.7 | – | – | 14.6 | 22.1 | – | – | – | – | – | – | COc1cc(-c2nc3sc4c(O)cccc4c3c(=O)n2CC(C)C)cc(OC)c1OC [No. 151, 8-Hydroxy-3-isobutyl-2-(3,4,5-trimethoxyphenyl)-3H-benzo[4,5]thieno[2,3-d]pyrimidin-4-one]
16 | 9.9 | 9.1 | – | – | 16.6 | 30.7 | – | – | – | – | – | – | COc1cc(-c2nc3sc4ccccc4c3c(=O)n2Cc2ccccc2)c(Br)c(OC)c1OC [No. 51, 3-benzyl-2-(2-bromo-3,4,5-trimethoxyphenyl)-3H-benzo[4,5]thieno[2,3-d]pyrimidin-4-one]

Row | SMILES | inhibition at 1 µM [1] [%] | inhibition at 10 µM [1] [%] | inhibition at 1 µM [2] [%] | inhibition at 10 µM [2] [%] | inhibition at 1 µM [3] [%] | inhibition at 10 µM [3] [%] | % Inhibition HSD1 1 μM [1] [%] | % Inhibition HSD1 10 μM [1] [%] | % Inhibition HSD3 1 μM [2] [%] | % Inhibition HSD3 10 μM [2] [%] | % Inhibition HSD2 1 μM [3] [%] | % Inhibition HSD2 10 μM [3] [%]
17 | O=c1c2c(nc(-c3ccc(F)cc3F)n1CCc1ccccc1)sc1c(O)cccc12 [No. 630] | – | – | – | – | – | – | 25.1 | 21.0 | 10.9 | 35.4 | 24.7 | 19.9
